Laboratory results published in patent US20060234916A1, “Cardioprotective agent” (Mizuo Miyazaki, priority 2003, published 2006).

What was measured:
[1] = Stability (half-life) in human blood plasma; format: in vitro ADME
Protocol: The agent of the present invention may contain the peptide derivative of an aryl diester of alpha-aminoalkylphosphonic acids. […] These derivatives are contained in human blood plasma, and remarkably stable under a variety of circumstances. For example, the preferred inhibitor Suc-Val-Pro-Phe^P(OPh)2, particularly preferably, Suc-Val-Pro-L-Phe^P(OPh)2 contained in the agent of the present invention, has a half-life of about 20 hours in human blood plasma. This stability is important, because it is predicted that a peritoneal exudate neutralizes most of protease inhibitors to damage their activity. Aminoalkylphosphonic acids are analogous of alpha-amino acids, and designated by the generally acceptable three-letter abbreviation for an amino acid followed by the superscript P. For example, diphenyl alpha-(N-benzyloxycarbonylamino)ethylphosphonate which is related to alanine is abbreviated Cbz-Ala^P(OPh)2.

[2] = molecular target: T1, chymase (Homo sapiens, UniProt P23946); assay: Suppression of chymase activity in blood vessel tissue of the living body after use during operation; format: in vivo; conditions: used at 10 μM during the operation; effect for 4 weeks
T1 construct: the chymase activity in the blood vessel tissue of the living body; from tissue; host or cells: blood vessel tissue of the living body
T1 sequence (P23946 22-247): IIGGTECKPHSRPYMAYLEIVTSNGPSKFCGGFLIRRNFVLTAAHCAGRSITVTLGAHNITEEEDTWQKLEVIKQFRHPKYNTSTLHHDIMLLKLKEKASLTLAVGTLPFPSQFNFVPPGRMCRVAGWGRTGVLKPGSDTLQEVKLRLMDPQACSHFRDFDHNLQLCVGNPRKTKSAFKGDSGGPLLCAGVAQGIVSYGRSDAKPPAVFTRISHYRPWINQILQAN
Protocol: The agent of the present invention allows at least one protease inhibitor to be administered in a substantially sufficient amount so that the inhibitor may exist by an effective concentration in the site of heart to protect. […] The effective administration amount of chymase inhibitor (Suc-Val-Pro-L-Phe^P(Oph)2) can be selected in the range from 0.0001 to 100 mg per 1 kg of adult body weight, per one day. For example, it is administered intravenously by an amount selected in the range from 0.001 to 100 mg, preferably from 0.01 to 1 mg, and orally by an amount selected in the range from 0.1 to 100 mg, preferably from 0.1 to 10 mg.

[3] = tested on: Syrian hamsters myocardial infarction model; assay: Survival rate after myocardial infarction (left coronary artery ligation) with oral administration; format: in vivo; conditions: placebo 39.1%
Protocol: The left coronary artery was ligated in Syrian hamsters (SLC, Co., Ltd., Shizuoka, Japan), 6 weeks of age, weighing 85 to 90 g, to prepare a myocardial infarction model (Jpn. J. Pharmacol., 86, p. 203-214 2001 life Sci. 71 p. 437-446 2002). […] It should be noted that the significant test was performed by log rank test using the survival curve.

Molecule | half-life in human blood plasma [1] | chymase activity in the blood vessel tissue of the living body [2] | survival rate up to the 14th day ([3]; 10 mg/kg orally once a day, administered from the day before the operation, log rank test significant, FIG. 1) [%] | survival rate up to the 14th day ([3]; 10 mg/kg orally, administered from the day after the operation, significant, FIG. 2) [%]
CC(C)C(NC(=O)CCC(=O)O)C(=O)N1CCCC1C(=O)NC(Cc1ccccc1)P(=O)(Oc1ccccc1)Oc1ccccc1 [Suc-Val-Pro-L-Phe^P(OPh)2] | about 20 hours | suppress significantly | 88.9 | 88.9
Suc-Val-Pro-Phe^P(OPh)2 | about 20 hours | – | – | –
